Data reported in ChEMBL document CHEMBL1150239, “Molecular characteristics for solid-state limited solubility” (J Med Chem, 2008).

Experiments:
[1] = buffer, pH 10
[2] = Dissociation constant, pKa of the compound; format: physicochemical

In the case of COC1=CC(=O)C[C@@H](C)[C@]12Oc1c(Cl)c(OC)cc(OC)c1C2=O [GRISEOFULVIN], the logS0 [1] is reported as -4.83.

CCOC(=O)c1ccc(N)cc1 [BENZOCAINE] gave a logS0 [1] of -2.34.

COC(=O)[C@H]1[C@@H](OC(=O)c2ccccc2)C[C@@H]2CC[C@H]1N2C [COCAINE] gave a logS0 [1] of -2.25.

COc1cc2c(N)nc(N3CCN(C(=O)OCC(C)(C)O)CC3)nc2c(OC)c1OC [TRIMAZOSIN] gave a logS0 [1] of -3.64.

O=C1Nc2ccc(Cl)cc2C(c2ccccc2Cl)=NC1O (stereo not drawn) [LORAZEPAM] gave a logS0 [1] of -3.74 and a pKa [2] of 11.5.

Work on CCC1(C2=CCCCCC2)C(=O)NC(=O)NC1=O [HEPTABARBITAL] yielded a logS0 [1] of -2.91.

Molecule CN1C(=O)c2cccnc2Oc2ccccc21 has a logS0 [1] of -3.76.

In the case of O=C(O)c1ccccc1 [BENZOIC ACID], the logS0 [1] is reported as -1.58.

Work on CCC1(C2=CC3CCC(C2)C3)C(=O)NC(=O)NC1=O (stereo not drawn) [REPOSAL] yielded a logS0 [1] of -2.7.

In the case of CCCCCC1(CC)C(=O)NC(=O)NC1=O, the logS0 [1] is reported as -2.34.

NCCN1C(=O)CN=C(c2ccccc2F)c2cc(Cl)ccc21 [DESALKYLFLURAZEPAM] gave a logS0 [1] of -3.72 and a pKa [2] of 11.6.

For CC(CCc1ccccc1)NCC(O)c1ccc(O)c(C(N)=O)c1 (stereo not drawn) [LABETALOL], the logS0 [1] was -3.41.

Work on CCCCC[C@H](O)/C=C/[C@H]1[C@H](O)CC(=O)[C@@H]1CCCCCCC(=O)O [ALPROSTADIL] yielded a logS0 [1] of -3.67.

In the case of CCCCC1(CC=C(C)C)C(=O)NC(=O)NC1=O, the logS0 [1] is reported as -3.55.

With Cc1ccc2c(c1)C(=O)Nc1cc(N)ccc1O2 the logS0 [1] was -3.93.

With CN1C(C(=O)Nc2ccccn2)=C(O)c2ccccc2S1(=O)=O [PIROXICAM] the logS0 [1] was -4.03.

Molecule Nc1ccc(/N=N/c2ccccc2)c(N)n1 [PHENAZOPYRIDINE] has a logS0 [1] of -4.53.

Work on CN1C(=O)c2cccnc2N(C(C)(C)C)c2ncccc21 yielded a logS0 [1] of -4.85.

Molecule CCN1c2ccccc2N(C)C(=O)c2cccnc21 has a logS0 [1] of -3.32.

Molecule CCN(CC)CCOC(=O)c1ccc(N)cc1 [PROCAINE] has a logS0 [1] of -1.78.

CCCCn1c(C)nc2c1c(=O)n(C)c(=O)n2C gave a logS0 [1] of -1.75.

Work on COc1ccc2[nH]c([S+]([O-])Cc3ncc(C)c(OC)c3C)nc2c1 (stereo not drawn) [OMEPRAZOLE] yielded a logS0 [1] of -3.4 and a pKa [2] of 8.9.

Molecule O=C1NC(=O)C(c2ccccc2)(c2ccccc2)N1 [PHENYTOIN] has a logS0 [1] of -4.15.

C=CCC1(CCCC)C(=O)NC(=O)NC1=O gave a logS0 [1] of -2.11.

C=C(Br)CC1(C(C)CC)C(=O)NC(=O)NC1=O (stereo not drawn) [BUTALLYLONAL] showed a logS0 [1] of -2.65.

CC(C)N(CCC(C(N)=O)(c1ccccc1)c1ccccn1)C(C)C (stereo not drawn) [DISOPYRAMIDE] showed a logS0 [1] of -2.38 and a pKa [2] of 10.1.

CCOC(=O)c1ccc(O)cc1 [ETHYLPARABEN] showed a logS0 [1] of -2.38 and a pKa [2] of 8.3.

In the case of Cc1ccnc2c1NC(C#N)c1cccnc1N2C1CC1 (stereo not drawn), the logS0 [1] is reported as -4.74.

For CC(C)NCC(O)COc1cccc2ccccc12 (stereo not drawn) [PROPRANOLOL], the logS0 [1] was -3.92.

Molecule C[C@]12C[C@H](O)[C@H]3[C@@H](CCC4=CC(=O)CC[C@@]43C)[C@@H]1CC[C@@H]2C(=O)CO [CORTICOSTERONE] has a logS0 [1] of -3.28.

Molecule CC(=O)OCC(=O)[C@@]1(O)CC[C@H]2[C@@H]3CCC4=CC(=O)C=C[C@]4(C)[C@H]3[C@@H](O)C[C@@]21C [PREDNISOLONE ACETATE] has a logS0 [1] of -4.37.

Molecule CC(C)Nc1cccnc1N1CCN(C(=O)c2cc3cc(NS(C)(=O)=O)ccc3[nH]2)CC1 [DELAVIRDINE] has a logS0 [1] of -5.74.

With O=C(O)c1ccccc1O [SALICYLIC ACID] the logS0 [1] was -1.8.

In the case of CC/C=C(\C)C1(CC)C(=O)NC(=O)NC1=O [VINBARBITAL], the logS0 [1] is reported as -2.3.

CC(=O)N1CCN(c2ccc(OC[C@H]3CO[C@](Cn4ccnc4)(c4ccc(Cl)cc4Cl)O3)cc2)CC1 [KETOCONAZOLE] showed a logS0 [1] of -3.8.

C=CCC1(C(C)CCC)C(=O)NC(=O)NC1=O (stereo not drawn) [SECOBARBITAL] showed a logS0 [1] of -2.36 and a pKa [2] of 7.8.

Molecule Cc1nnc2n1-c1ccc(Cl)cc1C(c1ccccc1Cl)=NC2 [TRIAZOLAM] has a logS0 [1] of -4.04.

C[C@@H]1C[C@H]2[C@@H]3CCC4=CC(=O)C=C[C@]4(C)[C@@]3(F)[C@@H](O)C[C@]2(C)[C@@]1(O)C(=O)CO [DEXAMETHASONE] showed a logS0 [1] of -3.59.

Molecule C=CCOc1ccc(CC(=O)O)cc1Cl [ALCLOFENAC] has a logS0 [1] of -3.13.

For CCC[S+]([O-])CCCN(CC)CC(O)COc1ccc(C#N)cc1 (stereo not drawn) [ALMOKALANT], the logS0 [1] was -1.17.

CCCCC[C@H](O)/C=C/[C@H]1[C@H](O)CC(=O)[C@@H]1C/C=C\CCCC(=O)O [DINOPROSTONE] gave a logS0 [1] of -2.47.

Molecule CC(C(=O)O)c1ccc(N2Cc3ccccc3C2=O)cc1 (single isomer, unassigned; (+)) [INDOPROFEN] has a logS0 [1] of -4.72 and a pKa [2] of 4.6.

Work on C=CCc1ccccc1OCC(O)CNC(C)C (stereo not drawn) [ALPRENOLOL] yielded a logS0 [1] of -2.83.

In the case of CCOC(=O)OCn1c([S+]([O-])Cc2nccc(OC)c2OC)nc2cc(C(=O)OC)c(C)cc21 (stereo not drawn), the logS0 [1] is reported as -5.21.

With CCN1c2ncccc2C(=O)N(C)c2ccc(Cl)nc21 the logS0 [1] was -4.11.

Work on CC(=O)OCC(=O)[C@@]1(O)[C@H](OC(C)=O)C[C@H]2[C@@H]3CCC4=CC(=O)C=C[C@]4(C)[C@@]3(F)[C@@H](O)C[C@@]21C [TRIAMCINOLONE DIACETATE] yielded a logS0 [1] of -4.31.

For COc1cc(NC(C)CCCN)c2ncccc2c1 (stereo not drawn) [PRIMAQUINE], the logS0 [1] was -2.52.

CCCNC(=O)NS(=O)(=O)c1ccc(Cl)cc1 [CHLORPROPAMIDE] showed a logS0 [1] of -3.3 and a pKa [2] of 4.8.

With Cc1ccccc1N1C(=O)c2cc(S(N)(=O)=O)c(Cl)cc2NC1C (stereo not drawn) [METOLAZONE] the logS0 [1] was -4.33.

Molecule C[C@H]1C[C@H]2[C@@H]3CCC4=CC(=O)C=C[C@]4(C)[C@@]3(F)[C@@H](O)C[C@]2(C)[C@@]1(O)C(=O)CO [BETAMETHASONE] has a logS0 [1] of -3.77.

Work on CCN1c2ncccc2C(=O)N(C)c2c(C)cc(OC)nc21 yielded a logS0 [1] of -2.62.

With CCC1(C2=CCCCC2)C(=O)NC(=O)NC1=O [CYCLOBARBITAL] the logS0 [1] was -2.12.

COC(=O)c1cc2nc([S+]([O-])Cc3nccc(OC)c3OC)[nH]c2cc1C (stereo not drawn) gave a logS0 [1] of -4.41.

With CC(=O)OCC(=O)[C@@]1(O)CC[C@H]2[C@@H]3CCC4=CC(=O)CC[C@]4(C)[C@H]3[C@@H](O)C[C@@]21C [HYDROCORTISONE ACETATE] the logS0 [1] was -4.34.

In the case of CC(=O)OCC(=O)[C@@]1(O)CC[C@H]2[C@@H]3CCC4=CC(=O)CC[C@]4(C)[C@H]3C(=O)C[C@@]21C [CORTISONE ACETATE], the logS0 [1] is reported as -4.21.
